Reference: patent US12698523B2, “Enhancement of nucleic acid polymerization by aromatic compounds” (priority 2019, dated 2026)

Each compound was assayed against T1, C4760 DNA polymerase (a variant of DPO4, SEQ ID NO:2) (Saccharolobus solfataricus, UniProt Q97W02, A155G/A42V/D156R/D292Y/D294N/E291S/E324K/E325K/E327K/E63R/E79L/G187P/G299W/I153V/I189F/I248T/I295S/K152A/K317Q/K321Q/K56Y/K78D/L293W/M76W/N188Y/P184Q/Q82W/Q83G/R300S/S297Y/S86E/T290K/T301W/V289W/V296Q) (assay: Primer extension assay with the HIV2 100mer template). Conditions: 0.5, 1, 1.52, or 2.5 Mm PEM; HIV2 100mer template; Eco SSB; 30 minutes at 23° C.; FIG. 11.
T1 construct: made in house
Type: biochemical, Sulfolobus solfataricus
Experimental: PEM activity of compound 12 was tested in primer extension assays using the HIV2 100mer template. Primer extension reactions included the following reagents: 50 Mm TrisCl, 200 Mm NH4Oac, 20% PEG8K, 5% NMS, 0.6 nmol PP-60.20, 0.6 Mm MnCl2, 2.75 μg/μl Eco single-strand binding protein (SSB), 1 M urea, 50 pmol each XNTP, 1.1 pmol template, 1 pmol oligonucleotide primer, 1.2 μg/μl purified recombinant C4760 DNA polymerase (SEQ ID NO:2), and 0.5, 1, or 1.5 Mm PEM. 10 μL primer extension reactions were run for 30 minutes at 23° C. and reaction products were analyzed by gel electrophoresis. […] Lanes 2-4 show primer extension products from reactions with a structurally related additive lacking robust PEM activity.
PEM activity of compounds 13 and 14 was tested in primer extension assays using the HIV2 100mer template. Primer extension reactions included the following reagents: 50 Mm TrisCl, 200 Mm NH4Oac, 20% PEG8K, 5% NMS, 0.6 nmol PP-60.20, 0.6 Mm MnCl2, 2.75 μg/μl Eco single-strand binding protein (SSB), 1 M urea, 50 pmol each XNTP, 1.1 pmol template, 1 pmol oligonucleotide primer, 1.2 μg/μl purified recombinant C4760 DNA polymerase (a variant of DPO4, see SEQ ID NO:2), and 0.5, 1, 1.52, or 2.5 Mm PEM. 10 μL primer extension reactions were run for 30 minutes at 23° C. and reaction products were analyzed by gel electrophoresis. A representative gel showing primer extension products is presented in FIG. 11 (the position of the full length HIV2 100mer is indicated by the arrow).
PEM activity of compounds 16, 17, and 18 and combinations thereof were tested in primer extension assays using the HIV2-derived 100mer template. Primer extension reactions included the following reagents: 50 Mm TrisCl, 200 Mm NH4Oac, 20% or 25% PEG8K, 5% NMS, 0.6 nmol PP-60.20, 0.6 Mm MnCl2, 2 μg Kod single-strand binding protein (SSB), 1 M urea, 50 pmol each XNTP, 1 pmol template, 1 pmol oligonucleotide primer, 1.2 μg purified recombinant C4760 DNA polymerase (a variant of DPO4, see SEQ ID NO:2), and 0.5-2 Mm PEM. 10 μL primer extension reactions were run for 30 minutes at 37° C. and reaction products were analyzed by gel electrophoresis. A representative gel showing primer extension products is presented in FIG. 13 (the position of a 100mer product is indicated by the arrow).

T1 sequence (Q97W02 other isoform, or with tags, fused parts or gaps with the stated changes): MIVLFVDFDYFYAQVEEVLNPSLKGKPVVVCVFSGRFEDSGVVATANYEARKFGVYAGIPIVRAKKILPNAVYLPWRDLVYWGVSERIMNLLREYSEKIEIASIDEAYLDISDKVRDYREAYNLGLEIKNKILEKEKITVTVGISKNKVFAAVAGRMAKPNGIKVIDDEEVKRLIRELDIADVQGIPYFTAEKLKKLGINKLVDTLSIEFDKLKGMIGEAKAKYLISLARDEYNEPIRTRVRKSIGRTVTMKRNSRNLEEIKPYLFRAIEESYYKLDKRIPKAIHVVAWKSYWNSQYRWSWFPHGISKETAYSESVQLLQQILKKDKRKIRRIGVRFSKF

Row | SMILES | polymerization of XNTPs into full length Xpandomer copies (PEM activity)
1 | Cc1cc(-c2cn(-c3ccc(C(=O)O)c(O)c3)nn2)nc(-c2cn(-c3ccc(C(=O)O)c(O)c3)nn2)c1 [Compound 13, 4,4′-((4-methylpyridine-2,6-diyl)bis(1H-1,2,3-triazole-4,1-diyl))bis(2-hydroxybenzoic acid)] | enables polymerization of XNTPs into full length Xpandomer copies of the 100mer template in a manner comparable to that of compound 10

Same assay, conditions: 0.5, 1, or 1.5 Mm PEM; HIV2 100mer template; Eco SSB; 30 minutes at 23° C.; FIG. 10

Row | SMILES | polymerization of XNTPs into full length Xpandomer copies (PEM activity)
2 | N#Cc1cc(-c2cn(-c3ccc(O)c(C(=O)O)c3)nn2)nc(-c2cn(-c3ccc(O)c(C(=O)O)c3)nn2)c1 [Compound 12, 5,5′-((4-cyanopyridine-2,6-diyl)bis(1H-1,2,3-triazole-4,1-diyl))bis(2-hydroxybenzoic acid)] | enables polymerization of XNTPs into full length Xpandomer copies of the 100mer template

Same assay, conditions: 2 Mm compound 16; 0.5, 1, 2, and 3 Mm compound 17; HIV2-derived 100mer template; Kod SSB; 30 minutes at 37° C.; FIG. 13

Row | SMILES | polymerization of XNTPs into lengthy Xpandomer copies (PEM activity)
3 | COC(=O)c1cc(-c2cn(-c3ccc(C(=O)O)c(O)c3)nn2)nc(-c2cn(-c3ccc(C(=O)O)c(O)c3)nn2)c1 [Compound 16, 4,4′-((4-(methoxycarbonyl)pyridine-2,6-diyl)bis(1H-1,2,3-triazole-4,1-diyl))bis(2-hydroxybenzoic acid)] | enable polymerization of XNTPs into lengthy Xpandomer copies of the 100mer template in a manner comparable to that of compound 14

Same assay, conditions: combination of 2 Mm compound 16 and 0.1 Mm or 0.3 Mm compound 18; HIV2-derived 100mer template; FIG. 13 lanes 10-12

Row | SMILES | polymerization of XNTPs into full length copies, combination of PEMs
4 | COC(=O)c1cc(-c2cn(-c3ccc(C(=O)O)c(O)c3)nn2)nc(-c2cn(-c3ccc(C(=O)O)c(O)c3)nn2)c1 [Compound 16, 4,4′-((4-(methoxycarbonyl)pyridine-2,6-diyl)bis(1H-1,2,3-triazole-4,1-diyl))bis(2-hydroxybenzoic acid)] | enable polymerization of XNTPS into full length copies of the 100mer template
5 | CNC(=O)c1cc(-c2cn(-c3ccc(C(=O)O)c(O)c3)nn2)nc(-c2cn(-c3ccc(C(=O)O)c(O)c3)nn2)c1 [Compound 18, 4,4′-((4-(methylcarbamoyl)pyridine-2,6-diyl)bis(1H-1,2,3-triazole-4,1-diyl))bis(2-hydroxybenzoic acid)] | enable polymerization of XNTPS into full length copies of the 100mer template

Each compound was assayed against T1, C4760 DNA polymerase (a variant of DPO4, SEQ ID NO:2) (assay: Primer extension on a 45mer RNA template derived from the HIV2 genome sequence). Conditions: 2 Mm PEM; 45mer RNA template from HIV2 genome; 30 minutes at 37° C.
Type: biochemical, Sulfolobus solfataricus
Experimental: To begin to investigate the potential of PEMs to enhance diverse polymerase reactions, the ability of PEMS to enable DNA polymerase to utilize RNA as a template was tested. An initial screen of several compounds set forth in Table I was conducted using a 45mer RNA template derived from the HIV2 genome sequence. Primer extension reactions included the following reagents: 50 Mm TrisCl, 200 Mm NH4Oac, 20% PEG8K, 5% NMS, 0.6 nmol PP-60.20, 0.6 Mm MnCl2, 2 μg Kod single-strand binding protein (SSB), 1 M urea, 50 pmol each XNTP, 0.5 pmol template, 0.5 pmol oligonucleotide primer, 1.2 μg purified recombinant C4760 DNA polymerase (a variant of DPO4, see SEQ ID NO:2), and 2 Mm PEM. 10 μL primer extension reactions were run for 30 minutes at 37° C. and reaction products were analyzed by gel electrophoresis.

Row | SMILES | PEM activity on an RNA template
6 | O=C(O)c1ccc(-n2cc(-c3ccc(-c4cn(-c5ccc(C(=O)O)c(C(F)(F)F)c5)nn4)o3)nn2)cc1C(F)(F)F [Compound 118, 4,4′-(furan-2,5-diylbis(1H-1,2,3-triazole-4,1-diyl))bis(2-(trifluoromethyl)benzoic acid)] | display PEM activity on an RNA template
7 | O=C(O)c1ccc(-n2cc(-c3cc(C(=O)N4CCOCC4)cc(-c4cn(-c5ccc(C(=O)O)c(O)c5)nn4)n3)nn2)cc1O [Compound 51, 4,4′-((4-(morpholine-4-carbonyl)pyridine-2,6-diyl)bis(1H-1,2,3-triazole-4,1-diyl))bis(2-hydroxybenzoic acid)] | display PEM activity on an RNA template
8 | CCNC(=O)c1cc(-c2cn(-c3ccc(C(=O)O)c([N+](=O)[O-])c3)nn2)nc(-c2cn(-c3ccc(C(=O)O)c([N+](=O)[O-])c3)nn2)c1 [Compound 106, 4,4′-((4-(ethylcarbamoyl)pyridine-2,6-diyl)bis(1H-1,2,3-triazole-4,1-diyl))bis(2-nitrobenzoic acid)] | display PEM activity on an RNA template
9 | CCNC(=O)c1cc(-c2cn(-c3ccc(C(=O)O)c(F)c3)nn2)nc(-c2cn(-c3ccc(C(=O)O)c(F)c3)nn2)c1 [Compound 76, 4,4′-((4-(ethylcarbamoyl)pyridine-2,6-diyl)bis(1H-1,2,3-triazole-4,1-diyl))bis(2-fluorobenzoic acid)] | display PEM activity on an RNA template
10 | O=C(NCCO)c1cc(-c2cn(-c3ccc(C(=O)O)c(C(F)(F)F)c3)nn2)nc(-c2cn(-c3ccc(C(=O)O)c(C(F)(F)F)c3)nn2)c1 [Compound 105, 4,4′-((4-((2-hydroxyethyl)carbamoyl)pyridine-2,6-diyl)bis(1H-1,2,3-triazole-4,1-diyl))bis(2-(trifluoromethyl)benzoic acid)] | display PEM activity on an RNA template
11 | CCN(CC)C(=O)c1cc(-c2cn(-c3ccc(C(=O)O)c(O)c3)nn2)nc(-c2cn(-c3ccc(C(=O)O)c(O)c3)nn2)c1 [Compound 49, 4,4′-((4-(diethylcarbamoyl)pyridine-2,6-diyl)bis(1H-1,2,3-triazole-4,1-diyl))bis(2-hydroxybenzoic acid)] | display PEM activity on an RNA template
12 | CCNC(=O)c1cc(-c2cn(-c3cc(C(=O)O)cc(C(F)(F)F)c3)nn2)nc(-c2cn(-c3cc(C(=O)O)cc(C(F)(F)F)c3)nn2)c1 [Compound 93, 5,5′-((4-(ethylcarbamoyl)pyridine-2,6-diyl)bis(1H-1,2,3-triazole-4,1-diyl))bis(3-(trifluoromethyl)benzoic acid)] | display PEM activity on an RNA template
13 | CCNC(=O)c1cc(-c2cn(-c3ccc(C(=O)NCC(=O)O)c(C(F)(F)F)c3)nn2)nc(-c2cn(-c3ccc(C(=O)NCC(=O)O)c(C(F)(F)F)c3)nn2)c1 [Compound 110, 2,2′-((4,4′-((4-(ethylcarbamoyl)pyridine-2,6-diyl)bis(1H-1,2,3-triazole-4,1-diyl))bis(2-(trifluoromethyl)benzoyl))bis(azanediyl))diacetic acid] | display PEM activity on an RNA template
14 | CCNC(=O)c1cc(-c2cn(-c3ccc(C(F)(F)F)c(C(=O)O)c3)nn2)nc(-c2cn(-c3ccc(C(F)(F)F)c(C(=O)O)c3)nn2)c1 [Compound 75, 5,5′-((4-(ethylcarbamoyl)pyridine-2,6-diyl)bis(1H-1,2,3-triazole-4,1-diyl))bis(2-(trifluoromethyl)benzoic acid)] | display PEM activity on an RNA template
15 | CCNC(=O)c1cc(-n2cc(-c3ccc(C(=O)O)c(C(F)(F)F)c3)nn2)cc(-n2cc(-c3ccc(C(=O)O)c(C(F)(F)F)c3)nn2)c1 [Compound 116, 4,4′-((5-(ethylcarbamoyl)-1,3-phenylene)bis(1H-1,2,3-triazole-1,4-diyl))bis(2-(trifluoromethyl)benzoic acid)] | display PEM activity on an RNA template
16 | CCNC(=O)c1cc(-c2cn(-c3ccc(C(=O)O)c(C(F)(F)F)c3)nn2)nc(-c2cn(-c3ccc(C(=O)O)c(C(F)(F)F)c3)nn2)c1 [Compound 73, 4,4′-((4-(ethylcarbamoyl)pyridine-2,6-diyl)bis(1H-1,2,3-triazole-4,1-diyl))bis(2-(trifluoromethyl)benzoic acid)] | display PEM activity on an RNA template
